Key:
[1] = molecular target: T1, HCV polymerase (NS5B570n-Con1) (Hepatitis C virus genotype 1b, UniProt Q9WMX2); test: HCV NS5B RNA polymerase activity assay; assay type: biochemical, HCV Con1 strain
T1 construct: contains a 21 amino acid deletion at the C-terminus relative to the full-length HCV polymerase; 6-histidine (N); made in house; host or cells: E. coli BL21(DE) pLysS, plasmid pET17b
Procedure: The enzymatic activity of HCV polymerase (NS5B570n-Con1) was measured as the incorporation of radiolabeled nucleotide monophosphates into acid insoluble RNA products. Unincorporated radiolabeled substrate was removed by filtration and scintillant was added to the washed and dried filter plate containing radiolabeled RNA product. The amount of RNA product generated by NS5B570-Con1 at the end of the reaction was directly proportional to the amount of light emitted by the scintillant.
The N-terminal 6-histidine tagged HCV polymerase, derived from HCV Con1 strain, genotype 1b (NS5B570n-Con1) contains a 21 amino acid deletion at the C-terminus relative to the full-length HCV polymerase and was purified from E. coli strain BL21(DE) pLysS. The construct, containing the coding sequence of HCV NS5B Con1 (GenBank accession number AJ242654) was inserted into the plasmid construct pET17b, downstream of a T7 promoter expression cassette and transformed into E. coli. A single colony was grown overnight as a starter culture and later used inoculate 10 L of LB media supplemented with 100 μg/mL ampicillin at 37° C. Protein expression was induced by the addition of 0.25 mM isopropyl-β-D-thiogalactopyranoside (IPTG) when optical density at […] of the culture was between 0.6 and 0.8 and cells were harvested after 16 to 18 h at 30° C. NS5B570n-Con1 was purified to homogeneity using a three-step protocol including subsequent column chromatography on Ni-NTA, SP-Sepharose HP and Superdex 75 resins.
Each 50 μl enzymatic reaction contained 20 nM RNA template derived from the complementary sequence of the Internal Ribosome Entry Site (cIRES), 20 nM NS5B570n-Con1 enzyme, 0.5 μCi of tritiated UTP (Perkin Elmer catalog no. TRK-412; specific activity: 30 to 60 Ci/mmol; stock solution concentration from 7.5×10^-5 M to 20.6×10^-6 M), 1 μM each ATP, CTP, and GTP, 40 mM Tris-HCl pH 8.0, 40 mM NaCl, 4 mM DTT (dithiothreitol), 4 mM MgCl2, and 5 μl of compound serial diluted in DMSO. Reaction mixtures were assembled in 96-well filter plates (cat #MADVN0B, Millipore Co.) and incubated for 2 h at 30° C. Reactions were stopped by addition of 10% final (v/v) trichloroacetic acid and incubated for 40 min at 4° C. Reactions were filtered, washed with 8 reaction volumes of 10% (v/v) trichloroacetic acetic acid, 4 reaction volumes of 70% (v/v) ethanol, air dried, and 25 μl of scintillant (Microscint 20, Perkin-Elmer) was added to each reaction well.
The amount of light emitted from the scintillant was converted to counts per minute (CPM) on a Topcount® plate reader (Perkin-Elmer, Energy Range: Low, Efficiency Mode: Normal, Count Time: 1 min, Background Subtract: none, Cross talk reduction: Off).
Data was analyzed in Excel® (Microsoft®) and ActivityBase® (Idbs®). The reaction in the absence of enzyme was used to determine the background signal, which was subtracted from the enzymatic reactions. Positive control reactions were performed in the absence of compound, from which the background corrected activity was set as 100% polymerase activity. All data was expressed as a percentage of the positive control. The compound concentration at which the enzyme-catalyzed rate of RNA synthesis was reduced by 50% (IC50) was calculated by fitting
[formula] equation (i) to the data. where “Y” corresponds to the relative enzyme activity (in %), “% Min” is the residual relative activity at saturating compound concentration, “% Max” is the relative maximum enzymatic activity, “X” corresponds to the compound concentration, and “S” is the Hill coefficient (or slope).

| SMILES | melting point [°C] | IC50 [1] [nM] |
| --- | --- | --- |
| COc1cc(C(C)N(C)S(C)(=O)=O)c(-c2ccc[nH]c2=O)cc1C(C)(C)C (centres unmarked) [Compound I-53, N-{1-[4-tert-Butyl-5-methoxy-2-(2-oxo-1,2-dihydro-pyridin-3-yl)-phenyl]-ethyl}-N-methyl-methanesulfonamide] | 205 to 207 | 187 |
| COc1cc(CN2C(=O)OC[C@H]2C(C)C)c(-c2ccc[nH]c2=O)cc1C(C)(C)C [Compound I-75] | – | 86 |
| COc1cc(CN2Cc3ccc(NS(C)(=O)=O)cc3C2=O)c(-c2ccc[nH]c2=O)cc1C(C)(C)C [Compound I-92] | 173 to 175 | 8 |
| COc1cc(CNS(C)(=O)=O)c(-c2ccc[nH]c2=O)cc1C(C)(C)C [Compound I-13, N-[4-tert-Butyl-5-methoxy-2-(2-oxo-1,2-dihydro-pyridin-3-yl)-benzyl]-methane sulfonamide] | – | 64 |
| COc1cc(C(=O)N2CCOCC2)c(-c2ccc[nH]c2=O)cc1C(C)(C)C [Compound I-40] | 208 to 210 | 533 |
| COc1cc(CC(N)=O)c(-c2ccc[nH]c2=O)cc1C(C)(C)C [Compound I-11, 2-[4-tert-Butyl-5-methoxy-2-(2-oxo-1,2-dihydro-pyridin-3-yl)-phenyl]-acetamide] | – | 437 |
| COc1cc(CN2CCNS2(=O)=O)c(-c2ccc[nH]c2=O)cc1C(C)(C)C [Compound I-60, 3-[5-tert-Butyl-2-(1,1-dioxo-1λ^6-[1,2,5]thiadiazolidin-2-ylmethyl)-4-methoxy-phenyl]-1H-pyridin-2-on] | 230 to 231 | 23 |
| COc1cc(C(=O)NCC#N)c(-c2ccc[nH]c2=O)cc1C(C)(C)C [Compound I-85] | – | 23 |
| COc1cc(CN(Cc2ccccc2)S(C)(=O)=O)c(-c2ccc[nH]c2=O)cc1C(C)(C)C [Compound I-26] | 229 to 230 | 145 |
| COC(=O)CCc1cc(OC)c(C(C)(C)C)cc1-c1ccc[nH]c1=O [Compound I-3, 3-[4-tert-Butyl-5-methoxy-2-(2-oxo-1,2-dihydro-pyridin-3-yl)-phenyl]-propionic acid methyl ester] | – | 954 |
| COc1cc(CNC(=O)C2CCCC(NS(C)(=O)=O)C2)c(-c2ccc[nH]c2=O)cc1C(C)(C)C (centres unmarked) [Compound I-82] | 162 to 164 | 30 |
| CCC1(CC)C(=O)C=CN(Cc2cc(OC)c(C(C)(C)C)cc2-c2ccc[nH]c2=O)C1=O [Compound I-39] | 282 to 284 | 159 |
| COc1cc(CN2CCCCC2=O)c(-c2ccc[nH]c2=O)cc1C(C)(C)C [Compound I-23] | 224.6 to 228.9 | 52 |
| COc1cc(CN(C)C(=O)c2ccccc2)c(-c2ccc[nH]c2=O)cc1C(C)(C)C [Compound I-22] | 236.2 to 238 | 25 |
| COc1cc(CN2CCOC2=O)c(-c2ccc[nH]c2=O)cc1C(C)(C)C [Compound I-74] | – | 56 |
| COc1cc(CNC(=O)c2ccc(N)cc2)c(-c2ccc[nH]c2=O)cc1C(C)(C)C [Compound I-42, 4-Amino-N-[4-tert-butyl-5-methoxy-2-(2-oxo-1,2-dihydro-pyridin-3-yl)-benzyl]-benzamide] | 165 to 167 | 36 |
| COc1cc(CN2CCN(C)S2(=O)=O)c(-c2ccc[nH]c2=O)cc1C(C)(C)C [Compound I-64, 3-[5-tert-Butyl-4-methoxy-2-(5-methyl-1,1-dioxo-1λ^6-[1,2,5]thiadiazolidin-2-ylmethyl)-phenyl]-1H-pyridin-2-one] | 253 to 255 | 60 |
| COc1cc(CN2C(=O)CC[C@@H]2C(=O)O)c(-c2ccc[nH]c2=O)cc1C(C)(C)C [Compound I-71, (R)-1-[4-tert-Butyl-5-methoxy-2-(2-oxo-1,2-dihydro-pyridin-3-yl)-benzyl]-5-oxo-pyrrolidine-2-carboxylic acid] | 199 to 200 | 36 |

| SMILES | melting point [°C] | IC50 [1] [nM] |
| --- | --- | --- |
| COc1cc(CNC(C)=O)c(-c2ccc[nH]c2=O)cc1C(C)(C)C [Compound I-12] | – | 125 |
| CC(=O)Nc1ccc(C(C)(C)C)cc1-c1ccc[nH]c1=O [Compound I-8, N-[4-tert-butyl-2-(2-oxo-1,2-dihydro-pyridin-3-yl)-phenyl]-acetamide] | 259 to 260 | 8560 |
| COc1cc(C(=O)N2CCS(=O)(=O)CC2)c(-c2ccc[nH]c2=O)cc1C(C)(C)C [Compound I-51] | 252 to 254 | 552 |
| CNC(=O)c1cc(OC)c(C(C)(C)C)cc1-c1ccc[nH]c1=O [Compound I-9, 4-tert-Butyl-5-methoxy-N-methyl-2-(2-oxo-1,2-dihydro-pyridin-3-yl)-benzamide] | – | 442 |
| CNC(=O)Cc1cc(OC)c(C(C)(C)C)cc1-c1ccc[nH]c1=O [Compound I-10, 2-[4-tert-Butyl-5-methoxy-2-(2-oxo-1,2-dihydro-pyridin-3-yl)-phenyl]-N-methyl-acetamide] | – | 700 |
| COc1cc(CN(C(C)=O)c2ccccc2)c(-c2ccc[nH]c2=O)cc1C(C)(C)C [Compound I-89] | – | 106 |
| COc1cc(CC(=O)O)c(-c2ccc[nH]c2=O)cc1C(C)(C)C [Compound I-7, [4-tert-Butyl-5-methoxy-2-(2-oxo-1,2-dihydro-pyridin-3-yl)-phenyl]-acetic acid] | – | 156 |
| COc1cc(CS(C)(=O)=O)c(-c2ccc[nH]c2=O)cc1C(C)(C)C [Compound I-15, 3-(5-tert-Butyl-2-methanesulfonylmethyl-4-methoxy-phenyl)-1H-pyridin-2-one] | – | 746 |
| COc1cc(CNS(C)(=O)=O)c(-c2cc(F)c[nH]c2=O)cc1C(C)(C)C [Compound I-45] | – | 687 |
| COc1cc(CNC(=O)c2ccc(N(S(C)(=O)=O)S(C)(=O)=O)cc2)c(-c2ccc[nH]c2=O)cc1C(C)(C)C [Compound I-44] | – | 774 |
| COc1cc(CN2C(=O)OC[C@@H]2C(C)C)c(-c2ccc[nH]c2=O)cc1C(C)(C)C [Compound I-76, 3-[5-tert-Butyl-2-((S)-4-isopropyl-2-oxo-oxazolidin-3-ylmethyl)-4-methoxy-phenyl]-1H-pyridin-2-one] | – | 134 |
| COc1cc(CN(C)C(C)=O)c(-c2ccc[nH]c2=O)cc1C(C)(C)C [Compound I-14] | – | 151 |
| COc1cc(C(=O)N2CCC(Oc3ccccc3)CC2)c(-c2ccc[nH]c2=O)cc1C(C)(C)C [Compound I-79] | – | 1320 |
| COc1cc(CNC(=O)c2cccnc2)c(-c2ccc[nH]c2=O)cc1C(C)(C)C [Compound I-49] | – | 26 |
| COc1cc(C(=O)N2CCOC(CO)C2)c(-c2ccc[nH]c2=O)cc1C(C)(C)C (centres unmarked) [Compound I-78] | – | 1410 |
| COc1cc(CN2CCCC2=O)c(-c2ccc[nH]c2=O)cc1C(C)(C)C [Compound I-18, 3-[5-tert-Butyl-4-methoxy-2-(2-oxo-pyrrolidin-1-ylmethyl)-phenyl]-1H-pyridin-2-one] | – | 121 |
| COc1cc(CCC(=O)O)c(-c2ccc[nH]c2=O)cc1C(C)(C)C [Compound I-1, 3-[4-tert-Butyl-5-methoxy-2-(2-oxo-1,2-dihydro-pyridin-3-yl)-phenyl]-propionic acid] | – | 273 |
| COc1cc(CNS(N)(=O)=O)c(-c2ccc[nH]c2=O)cc1C(C)(C)C [Compound I-50, N-[4-tert-Butyl-5-methoxy-2-(2-oxo-1,2-dihydro-pyridin-3-yl)-benzyl]-sulfamide] | – | 49 |

Source: US8232271B2 (priority 2008, dated 2012)
